Data taken from patent publication US9169260B2 (MERCK SHARP & DOHME CORP., priority 2011, dated 2015).

The compounds below were run against GST tagged IRAK-4 (Homo sapiens (Human), UniProt Q9NWZ3) (assay: IRAK-4 Kinase Assay (IMAP fluorescence polarization)). Conditions: 100 μM ATP, 30 minutes at 25° C.
Sequence of GST tagged IRAK-4 (Q9NWZ3 whole entry): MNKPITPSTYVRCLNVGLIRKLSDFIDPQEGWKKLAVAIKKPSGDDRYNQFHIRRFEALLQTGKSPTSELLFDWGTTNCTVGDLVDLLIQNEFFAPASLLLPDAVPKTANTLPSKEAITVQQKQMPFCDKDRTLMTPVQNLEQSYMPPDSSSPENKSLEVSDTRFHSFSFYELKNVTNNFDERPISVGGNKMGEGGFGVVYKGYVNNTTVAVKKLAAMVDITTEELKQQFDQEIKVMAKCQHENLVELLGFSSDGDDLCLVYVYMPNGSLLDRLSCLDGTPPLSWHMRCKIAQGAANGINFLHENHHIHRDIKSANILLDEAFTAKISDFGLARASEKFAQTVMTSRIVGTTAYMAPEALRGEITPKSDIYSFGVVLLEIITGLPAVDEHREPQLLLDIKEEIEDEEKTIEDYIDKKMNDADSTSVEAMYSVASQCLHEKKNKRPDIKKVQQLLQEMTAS
Type: biochemical
Method in brief: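 Activity was read by IMAP fluorescence polarization, where phosphopeptide binding to M(III) nanoparticles raises FP. The 30-minute, 25° C reaction used 100 μM ATP, 100 nM RP7030 substrate and 0.5 nM GST-IRAK-4 in pH 7.2 Tris buffer with MgCl2, DTT and Tween 20.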
CCS(=O)(=O)c1ccc(-c2cc(NC(=O)c3cnn4cccnc34)n(-c3ccc(C)cc3)n2)cc1 [Example 352, N-{3-[4-(ethylsulfonyl)phenyl]-1-(4-methylphenyl)-1H-pyrazol-5-yl}pyrazolo[1,5-a]pyrimidine-3-carboxamide] showed an IC50 of under 0.1 µM. Cc1ccc(-n2nc(-c3ccc(S(=O)(=O)N(C)C)cc3)cc2NC(=O)c2cnn3cccnc23)cc1 [Example 353, N-{3-[4-(dimethylsulfamoyl)phenyl]-1-(4-methylphenyl)-1H-pyrazol-5-yl}pyrazolo[1,5-a]pyrimidine-3-carboxamide] showed an IC50 of under 0.1 µM. With Cc1ccc(-n2nc(-c3ccnc(N)c3)cc2NC(=O)c2cnn3cccnc23)cc1 [Example 355, N-[3-(2-aminopyridin-4-yl)-1-(4-methylphenyl)-1H-pyrazol-5-yl]pyrazolo[1,5-a]pyrimidine-3-carboxamide] the IC50 was under 0.1 µM.

Same assay, conditions: 100 μM ATP, 30 minutes at 25° C.; μM
In the case of Cc1ccc(-n2nc(C3=CC(=O)N(C)CC3)cc2NC(=O)c2cnn3cccnc23)cc1 [Example 354, N-[3-(1-methyl-6-oxo-1,2,3,6-tetrahydropyridin-4-yl)-1-(4-methylphenyl)-1H-pyrazol-5-yl]pyrazolo[1,5-a]pyrimidine-3-carboxamide], the IC50 is reported as under 1 µM. Compound Cc1ccc(-n2nc(C3CCN(S(=O)(=O)Cc4noc5ccccc45)CC3)cc2NC(=O)c2cnn3cccnc23)cc1 [Example 356, N-[3-{1-[(1,2-benzisoxazol-3-ylmethyl)sulfonyl]piperidin-4-yl}-1-(4-methylphenyl)-1H-pyrazol-5-yl]pyrazolo[1,5-a]pyrimidine-3-carboxamide] has an IC50 of under 1 µM. Cc1ccc(-n2nc(C3CCN(S(=O)(=O)c4cccc5ccccc45)CC3)cc2NC(=O)c2cnn3cccnc23)cc1 [Example 357, N-{1-(4-methylphenyl)-3-[1-(naphthalen-1-ylsulfonyl)piperidin-4-yl]-1H-pyrazol-5-yl}pyrazolo[1,5-a]pyrimidine-3-carboxamide] showed an IC50 of under 1 µM. Compound Cc1ccc(-n2nc(C3CCN(S(=O)(=O)Cc4ccncc4)CC3)cc2NC(=O)c2cnn3cccnc23)cc1 [Example 358, N-[1-(4-methylphenyl)-3-{1-[(pyridin-4-ylmethyl)sulfonyl]piperidin-4-yl}-1H-pyrazol-5-yl]pyrazolo[1,5-a]pyrimidine-3-carboxamide] has an IC50 of under 1 µM. In the case of COc1ccc(S(=O)(=O)N2CCC(c3cc(NC(=O)c4cnn5cccnc45)n(-c4ccc(C)cc4)n3)CC2)cc1OC [Example 359, N-[3-{1-[(3,4-dimethoxyphenyl)sulfonyl]piperidin-4-yl}-1-(4-methylphenyl)-1H-pyrazol-5-yl]pyrazolo[1,5-a]pyrimidine-3-carboxamide], the IC50 is reported as under 1 µM. For Cc1ccc(-n2nc(C3CCN(S(=O)(=O)c4cc(F)cc(F)c4)CC3)cc2NC(=O)c2cnn3cccnc23)cc1 [Example 360, N-[3-{1-[(3,5-difluorophenyl)sulfonyl]piperidin-4-yl}-1-(4-methylphenyl)-1H-pyrazol-5-yl]pyrazolo[1,5-a]pyrimidine-3-carboxamide], the IC50 was under 1 µM. CCCS(=O)(=O)N1CCC(c2cc(NC(=O)c3cnn4cccnc34)n(-c3ccc(C)cc3)n2)CC1 [Example 361, N-{1-(4-methylphenyl)-3-[1-(propylsulfonyl)piperidin-4-yl]-1H-pyrazol-5-yl}pyrazolo[1,5-a]pyrimidine-3-carboxamide] showed an IC50 of under 1 µM. For Cc1ccc(-n2nc(C3CCN(S(=O)(=O)c4ccccc4C#N)CC3)cc2NC(=O)c2cnn3cccnc23)cc1 [Example 362, N-[3-{1-[(2-cyanophenyl)sulfonyl]piperidin-4-yl}-1-(4-methylphenyl)-1H-pyrazol-5-yl]pyrazolo[1,5-a]pyrimidine-3-carboxamide], the IC50 was under 1 µM. Cc1ccc(-n2nc(C3CCN(S(=O)(=O)CCC(F)(F)F)CC3)cc2NC(=O)c2cnn3cccnc23)cc1 [Example 363, N-[1-(4-methylphenyl)-3-{1-[(3,3,3-trifluoropropyl)sulfonyl]piperidin-4-yl}-1H-pyrazol-5-yl]pyrazolo[1,5-a]pyrimidine-3-carboxamide] gave an IC50 of under 1 µM.
